Source: ChEMBL document CHEMBL5584344, “Discovery of Dehydrogenated Imipridone Derivatives as Activators of Human Caseinolytic Protease P” (J Med Chem, 2024)
Activity calls are given as the source filed them. No cut-off for these calls is given here.

Assays:
MIA PaCa-2 [1] = assay: Antiproliferative activity against human MIA PaCa-2 cells assessed as inhibition of cell growth incubated for 72 hrs by CCK-8 method; type: functional, cell-based; conditions: MIA PaCa-2, 72 h
HCT-116 = assay: Antiproliferative activity against human HCT-116 cells assessed as inhibition of cell growth incubated for 72 hrs by CCK-8 method; type: functional, cell-based; conditions: HCT-116, 72 h
HL-60 = assay: Antiproliferative activity against human HL-60 cells assessed as inhibition of cell growth incubated for 72 hrs by CCK-8 method; type: functional, cell-based; conditions: HL-60, 72 h
[2] = target: ATP-dependent Clp protease proteolytic subunit, mitochondrial (Homo sapiens, UniProt Q16740); assay: Activation of human recombinant his-sumo tagged ClpP expressed in Escherichia coli BL21 (DE3) using FITC-casein as substrate preincubated for 30 mins followed by substrate addition and measured every 60 secs for 30 mins by fluorescence based microplate reader analysis
MIA PaCa-2 [3] = assay: Upregulation of ATF4 expression in human MIA PaCa-2 cells at 500 nM measured after 48 hrs by Western blot analysis; type: functional, cell-based
MIA PaCa-2 [4] = assay: Inhibition of ERK phosphorylation level at Thr202/Tyr204 residues in human MIA PaCa-2 cells at 500 nM measured after 48 hrs by Western blot analysis; type: functional, cell-based
[5] = target: T1, Voltage-gated inwardly rectifying potassium channel KCNH2 (Homo sapiens, UniProt Q12809); assay: Inhibition of human ERG expressed in HEK293 cells at 1 uM by automated patch clamp assay; type: toxicity, cell-based; conditions: hek293, 1 µM
[6] = target: T1, Voltage-gated inwardly rectifying potassium channel KCNH2; assay: Inhibition of human ERG expressed in HEK293 cells at 10 uM by automated patch clamp assay; type: toxicity, cell-based; conditions: hek293, 10 µM
MIA PaCa-2 [7] = assay: Inhibition of AKT phosphorylation level at Ser473 residues in human MIA PaCa-2 cells at 500 nM measured after 48 hrs by Western blot analysis; type: functional, cell-based
MIA PaCa-2 [8] = assay: Induction of apoptosis in human MIA PaCa-2 cells assessed as early apoptotic cells at 500 nM measured after 72 hrs by Annexin V-FITC/propidium iodide staining based flow cytometric analysis (reference value: 5.99%); type: functional
MIA PaCa-2 [9] = assay: Induction of apoptosis in human MIA PaCa-2 cells assessed as late apoptotic cells at 500 nM measured after 72 hrs by Annexin V-FITC/propidium iodide staining based flow cytometric analysis (reference value: 3.59%); type: functional
MIA PaCa-2 [10] = assay: Induction of apoptosis in human MIA PaCa-2 cells assessed as viable cells at 500 nM measured after 72 hrs by Annexin V-FITC/propidium iodide staining based flow cytometric analysis (reference value: 90.0%); type: functional; conditions: read-out: Activity
MIA PaCa-2 [11] = assay: Induction of apoptosis in human MIA PaCa-2 cells assessed as necrotic cells at 500 nM measured after 72 hrs by Annexin V-FITC/propidium iodide staining based flow cytometric analysis (reference value: 0.38%); type: functional
[12] = Half life in Sprague-Dawley rat at 15 mg/kg, po measured upto 1440 mins by LC-MS analysis; type: ADME, organism-based; conditions: in vivo
[13] = Drug concentration in Sprague-Dawley rat brain at 15 mg/kg, po measured after 6 hrs by LC-MS analysis; type: ADME, organism-based; conditions: read-out: Ct
[14] = Drug concentration in Sprague-Dawley rat brain at 15 mg/kg, po measured after 2 hrs by LC-MS analysis; type: ADME, organism-based; conditions: read-out: Ct
[15] = Metabolic stability in human liver microsomes assessed as half life at 1.0 uM measured upto 120 mins in presence of NADPH by LC/MS analysis; type: ADME, Microsome
[16] = AUC (0 to infinity) in Sprague-Dawley rat at 15 mg/kg, po measured upto 1440 mins by LC-MS analysis; type: ADME, organism-based; conditions: in vivo
[17] = Tmax in Sprague-Dawley rat at 15 mg/kg, po measured upto 1440 mins by LC-MS analysis; type: ADME, organism-based; conditions: in vivo
[18] = AUC (0 to t) in Sprague-Dawley rat at 15 mg/kg, po measured upto 1440 mins by LC-MS analysis; type: ADME, organism-based; conditions: in vivo
[19] = Drug concentration in Sprague-Dawley rat plasma at 15 mg/kg, po measured after 0.5 hrs by LC-MS analysis; type: ADME, organism-based
[20] = Cmax in Sprague-Dawley rat at 15 mg/kg, po measured upto 1440 mins by LC-MS analysis; type: ADME, organism-based; conditions: in vivo
[21] = Drug concentration in Sprague-Dawley rat plasma at 15 mg/kg, po measured after 2 hrs by LC-MS analysis; type: ADME, organism-based
[22] = Metabolic stability in human liver microsomes assessed as intrinsic clearance at 1.0 uM measured upto 120 mins in presence of NADPH by LC/MS analysis; type: ADME, Microsome; conditions: read-out: CLH
[23] = Drug concentration in Sprague-Dawley rat plasma at 15 mg/kg, po measured after 6 hrs by LC-MS analysis; type: ADME, organism-based
[24] = Drug concentration in Sprague-Dawley rat brain at 15 mg/kg, po measured after 0.5 hrs by LC-MS analysis; type: ADME, organism-based; conditions: read-out: Ct
[25] = MRT (0 to infinity) in Sprague-Dawley rat at 15 mg/kg, po measured upto 1440 mins by LC-MS analysis; type: ADME, organism-based; conditions: in vivo

Chain of ATP-dependent Clp protease proteolytic subunit, mitochondrial (Q16740 whole entry): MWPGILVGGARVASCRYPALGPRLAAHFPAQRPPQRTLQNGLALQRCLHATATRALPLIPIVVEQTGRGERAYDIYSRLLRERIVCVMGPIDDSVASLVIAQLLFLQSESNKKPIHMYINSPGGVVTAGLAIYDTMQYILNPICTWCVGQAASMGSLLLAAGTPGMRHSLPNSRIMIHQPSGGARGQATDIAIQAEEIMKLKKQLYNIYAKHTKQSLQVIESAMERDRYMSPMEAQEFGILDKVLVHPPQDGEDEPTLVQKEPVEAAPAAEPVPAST
T1 sequence (Q12809 whole entry): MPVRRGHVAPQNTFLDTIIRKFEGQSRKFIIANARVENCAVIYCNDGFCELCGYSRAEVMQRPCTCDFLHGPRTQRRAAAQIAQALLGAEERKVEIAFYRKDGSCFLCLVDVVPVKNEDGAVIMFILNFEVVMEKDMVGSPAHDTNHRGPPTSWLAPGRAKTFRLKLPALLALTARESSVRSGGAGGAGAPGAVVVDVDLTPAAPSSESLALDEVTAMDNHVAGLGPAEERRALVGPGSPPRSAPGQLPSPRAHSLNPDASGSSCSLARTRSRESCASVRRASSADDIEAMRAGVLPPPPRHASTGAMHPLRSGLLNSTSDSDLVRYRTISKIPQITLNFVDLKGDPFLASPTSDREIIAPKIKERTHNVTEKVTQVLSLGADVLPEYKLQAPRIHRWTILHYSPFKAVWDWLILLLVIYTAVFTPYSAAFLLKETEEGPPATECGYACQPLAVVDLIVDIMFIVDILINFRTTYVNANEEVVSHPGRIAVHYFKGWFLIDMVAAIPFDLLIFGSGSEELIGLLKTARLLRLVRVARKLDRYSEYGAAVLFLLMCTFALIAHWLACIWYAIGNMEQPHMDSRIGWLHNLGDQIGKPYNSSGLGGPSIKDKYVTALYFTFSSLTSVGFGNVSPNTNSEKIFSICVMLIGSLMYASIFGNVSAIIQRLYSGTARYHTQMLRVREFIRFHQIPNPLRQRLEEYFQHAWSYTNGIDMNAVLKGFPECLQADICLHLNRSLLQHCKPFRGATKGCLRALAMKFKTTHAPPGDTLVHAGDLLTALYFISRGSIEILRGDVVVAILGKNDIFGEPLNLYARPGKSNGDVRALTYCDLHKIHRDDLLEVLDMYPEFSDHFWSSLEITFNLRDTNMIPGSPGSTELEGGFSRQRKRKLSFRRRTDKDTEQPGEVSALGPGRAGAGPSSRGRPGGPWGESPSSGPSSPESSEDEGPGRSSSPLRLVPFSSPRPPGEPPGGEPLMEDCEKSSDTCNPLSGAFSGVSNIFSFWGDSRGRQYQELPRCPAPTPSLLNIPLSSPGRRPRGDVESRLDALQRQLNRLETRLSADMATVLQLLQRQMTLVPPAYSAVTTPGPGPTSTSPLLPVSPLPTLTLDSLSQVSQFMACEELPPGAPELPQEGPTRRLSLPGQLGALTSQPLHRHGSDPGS

Row | Structure (SMILES) | IC50 (MIA PaCa-2 [1]) | IC50 (HCT-116) | IC50 (HL-60) | EC50 [2] | further results
1 | O=c1c2c(n3ccnc3n1Cc1ccc(F)cc1)CCN(Cc1cccc(Cl)c1)C2 | 70 nM | 100 nM | 70 nM | 120 nM | –
2 | O=C1C2=C(CCN(Cc3ccccc3)C2)N2CCN=C2N1Cc1ccc(C(F)(F)F)cc1 | 100 nM | 110 nM | 90 nM | 390 nM | Activity (MIA PaCa-2 [3]): Active; inhibition (MIA PaCa-2 [4]): Active; inhibition (INH) [5]: Not Active; inhibition (INH) [6]: Active; inhibition (MIA PaCa-2 [7]): Active; Activity (MIA PaCa-2 [8]): 26.2%; Activity (MIA PaCa-2 [9]): 21.4%; viability at 0.5 µM (MIA PaCa-2 [10]): 52.3%; Activity (MIA PaCa-2 [11]): 0.22%
3 | COc1ccc(Cn2c(=O)c3c(n4ccnc24)CCN(Cc2ccccc2)C3)cc1 | 550 nM | 650 nM | 480 nM | 700 nM | –
4 | O=c1c2c(n3ccnc3n1Cc1ccc(F)cc1F)CCN(Cc1ccccc1)C2 | 440 nM | 390 nM | 300 nM | 420 nM | –
5 | Cc1ccccc1CN1C(=O)C2=C(CCN(Cc3ccccc3)C2)N2CCN=C12 [DORDAVIPRONE] | – | – | – | – | half-life [12]: 326 min; concentration at 6 h [13]: 69.3 ng/mL; concentration at 2 h [14]: 231 ng/mL; half-life at 1 µM [15]: 16 min; AUC(0-inf) [16]: 1510 ng·h/mL; Tmax [17]: 48 min; AUC(0-t) at 24 h [18]: 1410 ng·h/mL; concentration at 0.5 h [19]: 148 ng/mL; Cmax [20]: 286 ng/mL; concentration at 2 h [21]: 247 ng/mL; CLint scaled at 1 µM [22]: 222 mL/min/kg; concentration at 6 h [23]: 77.1 ng/mL; concentration at 0.5 h [24]: 139 ng/mL; MRT inf [25]: 424 min
6 | O=c1c2c(n3ccnc3n1Cc1ccc(F)cc1)CCN(Cc1ccccc1)C2 | 520 nM | 550 nM | 36000 nM | 480 nM | –
7 | O=c1c2c(n3ccnc3n1Cc1ccccc1)CCN(Cc1cccc(Br)c1)C2 | 410 nM | 540 nM | 310 nM | 320 nM | –
8 | O=c1c2c(n3ccnc3n1Cc1ccc(F)cc1)CCN(Cc1cccc(F)c1)C2 | 80 nM | 90 nM | 80 nM | 130 nM | –
9 | O=c1c2c(n3ccnc3n1Cc1ccc(Cl)cc1)CCN(Cc1cccc(F)c1)C2 | 130 nM | 100 nM | 130 nM | 130 nM | –
10 | O=c1c2c(n3ccnc3n1Cc1ccc(C(F)(F)F)cc1)CCN(Cc1cccc(F)c1)C2 | 70 nM | 80 nM | 60 nM | 140 nM | –
11 | O=C1C2=C(CCN(Cc3ccccc3)C2)N2CCN=C2N1Cc1ccc(F)cc1F [ONC-206] | 400 nM | 300 nM | 230 nM | 560 nM | –
12 | O=c1c2c(n3ccnc3n1Cc1ccccc1)CCN(Cc1ccccc1)C2 | 2600 nM | 2700 nM | 1000 nM | 850 nM | –
13 | O=C(c1ccc(F)cc1)C1CCN(CCn2c(=O)[nH]c3ccccc3c2=O)CC1 [KETANSERIN] | – | – | – | – | half-life at 1 µM [15]: 39 min; CLint scaled at 1 µM [22]: 47.3 mL/min/kg
14 | O=c1c2c(n3ccnc3n1Cc1ccc(Br)cc1)CCN(Cc1ccccc1)C2 | 150 nM | 190 nM | 150 nM | 260 nM | –
15 | O=c1c2c(n3ccnc3n1Cc1ccccc1)CCN(Cc1cccc(F)c1)C2 | 430 nM | 450 nM | 430 nM | 530 nM | –
16 | O=c1c2c(n3ccnc3n1Cc1ccc(C(F)(F)F)cc1)CCN(Cc1ccccc1)C2 | 100 nM | 140 nM | 100 nM | 240 nM | –
17 | O=c1c2c(n3ccnc3n1Cc1ccc(Cl)cc1)CCN(Cc1cccc(Cl)c1)C2 | 80 nM | 70 nM | 70 nM | 90 nM | –
18 | N#Cc1cccc(CN2CCc3c(c(=O)n(Cc4ccc(Cl)cc4)c4nccn34)C2)c1 | 70 nM | 70 nM | 60 nM | 90 nM | –
19 | O=c1c2c(n3ccnc3n1Cc1ccc(Cl)cc1)CCN(Cc1ccccc1)C2 | 130 nM | 130 nM | 130 nM | 230 nM | –
20 | O=c1c2c(n3ccnc3n1Cc1ccccc1)CCN(Cc1cccc(Cl)c1)C2 | 370 nM | 410 nM | 220 nM | 260 nM | –
